# Test results reported in patent publication US20090181920A1, “INTRATHECAL TREATMENT OF NEUROPATHIC PAIN WITH A2AR AGONISTS” (PGXHEALTH, LLC, priority 2008, published 2009).
# How the values were obtained:
# [1] = test system: CCI-induced allodynia; assay: Chronic constriction injury (CCI) neuropathic pain model, von Frey testing after a single intrathecal injection; type: in vivo, Sprague Dawley rats; settings: for Effect on CCI-induced allodynia relative to ATL313 and CGS21680: tested at 1 uM
# Protocol: (§1) Saline is used as the vehicle in the experiments. All A2A agonists are dissolved in 100% DMSO to a 10 mM concentration. These are then diluted 1:10,000 with saline. The total volume of injection for all groups is 5 μL, which consists of a 1 μL air bubble, 1 μL of agonist/vehicle, 1 μL air bubble, and finally a 2 μL flush of saline. The intermediate air bubble is used to separate drug/vehicle and the flush.
# Sprague Dawley rats underwent chronic constriction injury (CCI) of the sciatic nerve or sham surgery. After pre-surgery baseline testing (Day 0=D0), rats received chronic constriction injury of the left sciatic nerve at mid-thigh level to produce neuropathic pain (chronic constriction injury model: CCI). This is seen by the fall in pain threshold between days 4 and 11 (D4, D11) after surgery relative to D0. Once CCI-induced allodynia was stable as tested by von Frey filaments, the material to be studied (e.g., vehicle or A2AR agonists CGS21680 or ATL313) was injected intrathecally. After injection, behavioral testing occurred at 4, 24, and 72 h and then weekly for 6 weeks.
# The results of the studies are shown in FIG. 1 with the translation of Y-axis units as follows: 5=10 grams, 4.75=5.62 grams, 4.5=3.16 grams, 4.25=[…], 4=1 gram, 3.75=0.56 grams, 3.5=0.32 grams.
# Although the CCI surgery is unilateral (left sciatic nerve), the allodynia is present bilaterally. In addition, the reversal of allodynia by A2A agonism also occurs bilaterally. Therefore, ATL313 activates A2A receptors within the spinal cord altering the mechanisms leading to central sensitization.
# The animals following unilateral CCI surgery of the left sciatic nerve, as noted above, have allodynia in both hind paws. For simplicity all graphs show left hind paw responses only, as the right hind paw had equivalent responses.
# [2] = test system: CCI-induced allodynia; assay: Blockade and reversal of A2A agonist (ATL313) by antagonist ZM241385 in the CCI model, von Frey testing; type: in vivo, male Sprague-Dawley rats
# Protocol: as §1
# CCI surgery and indwelling intrathecal catheters were implanted in male Sprague-Dawley rats (325-350 g, n=6/group). 10-14 days after surgery, when the allodynia is stable, an A2A antagonist (ZM241385, 10 uM, Tocris Bioscience) or vehicle was co-administered with ATL313 or vehicle. von Frey testing was done before surgery, before intrathecal injections, and 1, 2, 3, 4, 6, and 24 h after injection.
# In a separate group of animals, ATL313 (1 uM) was administered 10-14 days after CCI surgery. One week after ATL313 (1 uM, i.t.) administration, ZM241385 (10 uM) or equivolume vehicle was administered intrathecally. von Frey testing was done 1, 2, 3, 4, 6 & 24 h after injection.
# [3] = single intrathecal injection, 1 uM, given 10-14 days after CCI surgery, P<0.05
smiles,measurement,setting,value
"COC(=O)N1CCC(CC#Cc2nc(N)c3ncn(C4OC(C(=O)NC5CC5)C(O)C4O)c3n2)CC1 (centres unmarked) [ATL313, 4-{3-[6-amino-9-(5-cyclopropylcarbamoyl-3,4-dihydroxy-tetrahydro-furan-2-yl)-9H-purin-2-yl]-prop-2-ynyl}-piperidine-1-carboxylic acid methyl ester]",Effect on CCI-induced allodynia,"[1]; 0.1 uM in 5 uL intrathecal, compared to saline-injected animals, P>0.05",no significant impact on CCI-induced allodynia
same,Analgesic effect in sham-operated animals,"[1]; sham-operated animals, intrathecal, P>0.05",no effect on sham-operated animals
same,Duration of reversal of allodynia,[1]; [3],at least 4 weeks
same,Effect on CCI-induced allodynia (mechanical sensitivity to von Frey filaments),[1]; [3],partial reversal of the allodynia
"CCNC(=O)[C@H]1O[C@@H](n2cnc3c(N)nc(NCCc4ccc(CCC(=O)O)cc4)nc32)[C@H](O)[C@@H]1O [CGS21680, 3-[4-[2-[[6-amino-9-[(2R,3R,4S,5S)-5-(ethylcarbamoyl)-3,4-dihydroxy-oxolan-2-yl]purin-2-yl]amino]ethyl]phenyl]propanoic acid, reference compound]",Reversal of CCI-induced allodynia compared with ATL313,"[1]; intrathecal, at a 10-fold higher dose than that of ATL313, P<0.001","comparable reversal of CCI-induced allodynia, in both duration and intensity"
"COc1ccccc1OC(=O)N1CCC(CC#Cc2nc(N)c3ncn(C4OC(C(=O)NC5CC5)C(O)C4O)c3n2)CC1 (centres unmarked) [Compound A, 4-{3-[6-Amino-9-(5-cyclopropylcarbamoyl-3,4-dihydroxy-tetrahydro-furan-2-yl)-9H-purin-2-yl]-prop-2-ynyl}-piperidine-1-carboxylic acid 2-methoxyphenyl ester]",Effect on CCI-induced allodynia relative to ATL313 and CGS21680,[1]; intrathecal,ranged between ATL313 (1 μM) and CGS21680 (1 μM)
"Nc1nc(C#CCC2CCN(C(=O)OC3CCC3)CC2)nc2c1ncn2C1OC(C(=O)NC2CC2)C(O)C1O (centres unmarked) [Compound B, 4-{3-[6-Amino-9-(5-cyclopropylcarbamoyl-3,4-dihydroxy-tetrahydro-furan-2-yl)-9H-purin-2-yl]-prop-2-ynyl}-piperidine-1-carboxylic acid cyclobutyl ester]",Effect on CCI-induced allodynia relative to ATL313 and CGS21680,[1]; intrathecal,ranged between ATL313 (1 μM) and CGS21680 (1 μM)
"Nc1nc(C#CCC2CCN(C(=O)OCC3CC3)CC2)nc2c1ncn2C1OC(C(=O)NC2CC2)C(O)C1O (centres unmarked) [Compound C, 4-{3-[6-Amino-9-(5-cyclopropylcarbamoyl-3,4-dihydroxy-tetrahydro-furan-2-yl)-9H-purin-2-yl]-prop-2-ynyl}-piperidine-1-carboxylic acid cyclopropylmethyl ester]",Effect on CCI-induced allodynia relative to ATL313 and CGS21680,[1]; intrathecal,ranged between ATL313 (1 μM) and CGS21680 (1 μM)
Nc1nc(NCCc2ccc(O)cc2)nc2nc(-c3ccco3)nn12 [ZM241385],Effect of co-administered antagonist on the ATL313 effect on CCI-induced allodynia,"[2]; ZM241385 10 uM co-administered intrathecally with ATL313 1 uM, 10-14 days after CCI surgery, P<0.0001",abolishes the effect of ATL313 on the CCI-induced allodynia
same,Effect of antagonist on the established reversal of allodynia,"[2]; ZM241385 10 uM intrathecal, one week after ATL313 1 uM i.t.",had no effect on reversal of the allodynia induced by the previous ATL313 administration
same,Effect of antagonist alone on CCI-induced allodynia,"[2]; ZM241385 10 uM intrathecal, without agonist, P>0.05",has no effect on the CCI-induced allodynia
